According to patent US4248863A, “Antibiotics saframycins A, B, C, D and E and process for producing the same” (priority 1977, dated 1981):
Values after ≈ are worked out from the molar mass of the structure shown.

Tests used:
Corynebacterium xerosis = experiment: Antimicrobial spectrum, MIC (Table 4); format: cell-based; conditions: 1% glucose nutrient agar, 37° C., 24 or 48 hours
Nocardia asteroides = experiment: Antimicrobial spectrum, MIC (Table 4); format: cell-based; conditions: 37° C., 24 or 48 hours
Rhodotorula glutinis = experiment: Antimicrobial spectrum, MIC (Table 4); conditions: Sabouraud.dextrose.agar, 27° C., 48 hours
Bacillus cereus = experiment: Antimicrobial spectrum, MIC (Table 4); format: cell-based; conditions: 1% glucose nutrient agar, 37° C., 24 or 48 hours
Streptococcus faecalis = experiment: Antimicrobial spectrum, MIC (Table 4); format: cell-based; conditions: 1% glucose nutrient agar, 37° C., 24 or 48 hours
[1] = tested on: Streptococcus pyogenes 090R; experiment: Antimicrobial spectrum, MIC (Table 4); format: cell-based; conditions: blood agar, 37° C., 24 or 48 hours
[2] = tested on: Shigella dysenteriae Shiga; experiment: microbe, parasite or virus in culture; format: cell-based; conditions: 1% glucose nutrient agar, 37° C., 24 or 48 hours
Staphylococcus citreus = experiment: Antimicrobial spectrum, MIC (Table 4); format: cell-based; conditions: 1% glucose nutrient agar, 37° C., 24 or 48 hours
[3] = tested on: Staphylococcus aureus 209P; experiment: Antimicrobial spectrum, MIC (Table 4); format: cell-based; conditions: 1% glucose nutrient agar, 37° C., 24 or 48 hours
[4] = tested on: Corynebacterium dephtheriae; experiment: Antimicrobial spectrum, MIC (Table 4); format: cell-based; conditions: 1% glucose nutrient agar, 37° C., 24 or 48 hours
Salmonella typhimurium = experiment: Antimicrobial spectrum, MIC (Table 4); format: cell-based; conditions: 1% glucose nutrient agar, 37° C., 24 or 48 hours
Mycobacterium sp. 607 = experiment: Antimicrobial spectrum, MIC (Table 4); format: cell-based; conditions: 3% glycerol nutrient agar for acid-fast bacteria, 37° C., 24 or 48 hours
Mucor mucedo = experiment: Antimicrobial spectrum, MIC (Table 4); conditions: Sabouraud.dextrose.agar, 27° C., 48 hours
[5] = tested on: Trichophyton mentagrophytes; experiment: Antimicrobial spectrum, MIC (Table 4); conditions: Sabouraud.dextrose.agar, 27° C., 72 hours
Saccharomyces cerevisiae = experiment: Antimicrobial spectrum, MIC (Table 4); conditions: Sabouraud.dextrose.agar, 27° C., 48 hours
Aspergillus niger = experiment: Antimicrobial spectrum, MIC (Table 4); conditions: Sabouraud.dextrose.agar, 27° C., 48 hours
Pseudomonas aeruginosa = experiment: Antimicrobial spectrum, MIC (Table 4); format: cell-based; conditions: 1% glucose nutrient agar, 37° C., 24 or 48 hours
Mycobacterium phlei = experiment: Antimicrobial spectrum, MIC (Table 4); format: cell-based; conditions: 3% glycerol nutrient agar for acid-fast bacteria, 37° C., 24 or 48 hours
Aspergillus oryzae = experiment: Antimicrobial spectrum, MIC (Table 4); conditions: Sabouraud.dextrose.agar, 27° C., 48 hours
[6] = tested on: Staphylococcus salivarius; experiment: Antimicrobial spectrum, MIC (Table 4); format: cell-based; conditions: 1% glucose nutrient agar, 37° C., 24 or 48 hours
Micrococcus luteus = experiment: Antimicrobial spectrum, MIC (Table 4); format: cell-based; conditions: 1% glucose nutrient agar, 37° C., 24 or 48 hours
Candida albicans = experiment: Antimicrobial spectrum, MIC (Table 4); conditions: Sabouraud.dextrose.agar, 27° C., 48 hours
Staphylococcus albus = experiment: Antimicrobial spectrum, MIC (Table 4); format: cell-based; conditions: 1% glucose nutrient agar, 37° C., 24 or 48 hours
Brucella abortus = experiment: microbe, parasite or virus in culture; format: cell-based; conditions: blood agar, 37° C., 24 or 48 hours
Serratia marcescens = experiment: Antimicrobial spectrum, MIC (Table 4); format: cell-based; conditions: 1% glucose nutrient agar, 37° C., 24 or 48 hours
Streptococcus pyogenes = experiment: Antimicrobial spectrum, MIC (Table 4); format: cell-based; conditions: blood agar, 37° C., 24 or 48 hours
Klebsiella pneumoniae = experiment: Antimicrobial spectrum, MIC (Table 4); format: cell-based; conditions: 1% glucose nutrient agar, 37° C., 24 or 48 hours
Mycobacterium avium = experiment: Antimicrobial spectrum, MIC (Table 4); format: cell-based; conditions: 3% glycerol nutrient agar for acid-fast bacteria, 37° C., 24 or 48 hours
Penicillium glaucum = experiment: Antimicrobial spectrum, MIC (Table 4); conditions: Sabouraud.dextrose.agar, 27° C., 48 hours
[7] = tested on: Staphylococcus aureus Smith; experiment: Antimicrobial spectrum, MIC (Table 4); format: cell-based; conditions: 1% glucose nutrient agar, 37° C., 24 or 48 hours
Escherichia coli = experiment: Antimicrobial spectrum, MIC (Table 4); format: cell-based; conditions: 1% glucose nutrient agar, 37° C., 24 or 48 hours
Bacillus subtilis = experiment: Antimicrobial spectrum, MIC (Table 4); format: cell-based; conditions: 1% glucose nutrient agar, 37° C., 24 or 48 hours

Row | Structure (SMILES) | MIC (Corynebacterium xerosis) | MIC (Nocardia asteroides) | MIC (Rhodotorula glutinis) | MIC (Bacillus cereus) | MIC [2] | MIC (Staphylococcus citreus) | MIC [3] | MIC [4] | MIC (Salmonella typhimurium) | MIC (Mycobacterium sp. 607) | MIC (Mucor mucedo) | MIC [5] | MIC (Saccharomyces cerevisiae) | MIC (Aspergillus niger) | MIC (Pseudomonas aeruginosa) | MIC (Mycobacterium phlei) | MIC (Aspergillus oryzae) | MIC (Micrococcus luteus) | MIC (Candida albicans) | Solubility (Solubility; acetone) | also measured
1 | COC1=C(C)C(=O)C2=C(C1=O)[C@@H]1[C@@H]3CC4=C(C(=O)C(OC)=C(C)C4=O)[C@H](CNC(=O)C(C)=O)N3C[C@H]([C@H]2OC)N1C [saframycin C] | 25.0 µg/mL (≈ 44 µM) | 50.0 µg/mL (≈ 88.1 µM) | > 100.0 µg/mL | 100.0 µg/mL (≈ 176 µM) | > 100.0 µg/mL | 25.0 µg/mL (≈ 44 µM) | 25.0 µg/mL (≈ 44 µM) | 3.125 µg/mL (≈ 5.51 µM) | > 100.0 µg/mL | > 100.0 µg/mL | > 100.0 µg/mL | > 100.0 µg/mL | > 100.0 µg/mL | > 100.0 µg/mL | > 100.0 µg/mL | > 100.0 µg/mL | > 100.0 µg/mL | 6.25 µg/mL (≈ 11 µM) | > 100.0 µg/mL | Easily soluble | MIC (Streptococcus faecalis): > 100.0 µg/mL; MIC [1]: 12.5 µg/mL (≈ 22 µM); MIC [6]: > 100.0 µg/mL; Solubility (Solubility; benzene): Easily soluble; Solubility (Solubility; chloroform): Easily soluble; Solubility (Solubility; esters): Easily soluble; Solubility (Solubility; ethyl ether): Sparingly soluble; Solubility (Solubility; lower alcohols): Easily soluble; Solubility (Solubility; n-hexane): Insoluble; Solubility (Solubility; water): Insoluble; MIC (Staphylococcus albus): 25.0 µg/mL (≈ 44 µM); MIC (Brucella abortus): 50.0 µg/mL (≈ 88.1 µM); MIC (Serratia marcescens): > 100.0 µg/mL; MIC (Streptococcus pyogenes): 25.0 µg/mL (≈ 44 µM); MIC (Klebsiella pneumoniae): 50.0 µg/mL (≈ 88.1 µM); MIC (Mycobacterium avium): > 100.0 µg/mL; MIC (Penicillium glaucum): > 100.0 µg/mL; MIC [7]: 6.25 µg/mL (≈ 11 µM); MIC (Escherichia coli): > 100.0 µg/mL; MIC (Bacillus subtilis): 25.0 µg/mL (≈ 44 µM)
2 | COC1=C(C)C(=O)C2=C(C1=O)[C@H](CNC(=O)C(C)=O)N1C[C@H]3C(=O)c4c(O)c(C)c(OC)c(O)c4[C@@H]([C@@H]1C2)N3C [saframycin D] | 6.25 µg/mL (≈ 11.3 µM) | 50.0 µg/mL (≈ 90.3 µM) | > 100.0 µg/mL | 100.0 µg/mL (≈ 181 µM) | > 100.0 µg/mL | 50.0 µg/mL (≈ 90.3 µM) | 25.0 µg/mL (≈ 45.2 µM) | 0.195 µg/mL (≈ 0.352 µM) | > 100.0 µg/mL | 50.0 µg/mL (≈ 90.3 µM) | > 100.0 µg/mL | > 100.0 µg/mL | > 100.0 µg/mL | > 100.0 µg/mL | > 100.0 µg/mL | 50.0 µg/mL (≈ 90.3 µM) | > 100.0 µg/mL | 50.0 µg/mL (≈ 90.3 µM) | > 100.0 µg/mL | Sparingly soluble | Solubility (Solubility; chloroform): Easily soluble; Solubility (Solubility; esters): Sparingly soluble; Solubility (Solubility; ethyl ether): Sparingly soluble; Solubility (Solubility; lower alcohols): Easily soluble; Solubility (Solubility; n-hexane): Insoluble; Solubility (Solubility; pyridine): Easily soluble; Solubility (Solubility; water): Insoluble; MIC (Staphylococcus albus): 50.0 µg/mL (≈ 90.3 µM); MIC (Brucella abortus): 25.0 µg/mL (≈ 45.2 µM); MIC (Serratia marcescens): > 100.0 µg/mL; MIC (Klebsiella pneumoniae): 100.0 µg/mL (≈ 181 µM); MIC (Mycobacterium avium): 50.0 µg/mL (≈ 90.3 µM); MIC (Penicillium glaucum): > 100.0 µg/mL; MIC [7]: 50.0 µg/mL (≈ 90.3 µM); MIC (Escherichia coli): > 100.0 µg/mL; MIC (Bacillus subtilis): 50.0 µg/mL (≈ 90.3 µM)
